Test results published in paper PMC3715805 (International Journal of Molecular Sciences, 2007).
pIC50: −log10 of the molar value.

Target: T1, cyclooxygenase-1 (COX-1) (Ovis aries, UniProt P05979)
T1 sequence (P05979 25-600): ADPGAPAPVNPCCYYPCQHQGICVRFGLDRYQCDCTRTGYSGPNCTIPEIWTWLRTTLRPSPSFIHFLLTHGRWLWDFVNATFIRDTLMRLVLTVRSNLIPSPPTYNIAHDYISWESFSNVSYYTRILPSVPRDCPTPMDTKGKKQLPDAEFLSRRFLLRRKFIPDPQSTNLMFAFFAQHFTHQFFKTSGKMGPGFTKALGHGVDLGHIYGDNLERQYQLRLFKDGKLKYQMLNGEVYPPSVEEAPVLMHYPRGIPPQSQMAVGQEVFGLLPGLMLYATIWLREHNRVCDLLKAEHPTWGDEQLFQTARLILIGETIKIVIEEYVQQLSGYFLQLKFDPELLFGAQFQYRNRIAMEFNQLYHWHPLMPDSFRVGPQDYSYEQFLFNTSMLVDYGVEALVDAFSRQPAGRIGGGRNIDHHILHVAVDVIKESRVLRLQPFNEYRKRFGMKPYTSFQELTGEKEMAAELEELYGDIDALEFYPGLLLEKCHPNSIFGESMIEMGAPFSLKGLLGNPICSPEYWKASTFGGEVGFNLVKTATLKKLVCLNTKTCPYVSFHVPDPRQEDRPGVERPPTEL
Experiment: O2 consumption
Assay type: biochemical

## COc1cc(O)c2c(=O)cc(-c3ccc(OC)c(-c4c(O)cc(O)c5c(=O)cc(-c6ccc(O)cc6)oc45)c3)oc2c1 [compound 1, ginkgetin]
  pIC50: < 4.00
